Experimental data: US20240150293A1, “SPIROCYCLOHEXANE DERIVATIVES, PHARMACEUTICAL COMPOSITIONS CONTAINING THEM AND THEIR USES AS ANTI-APOPTOTIC INHIBITORS” (LES LABORATOIRES SERVIER, priority 2021, published 2024)

Experiments:
[1] = target: Cy5-labelled Mcl1 (amino acids 171-321) C286S protein (UniProtKB Q07820) (Homo sapiens (Human), UniProt Q07820, C286S); test: Inhibition of Mcl-1 by the fluorescence quenching assay (Example A, Method B); type: binding; conditions: for inhibition at 1 µM: read-out: Mcl-1 inhibition, % at a single concentration
Outline: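 Cy5-labelled Mcl1 171-321 C286S (1 nM) quenched by TQ5WS-labelled PUMA peptide (10, 20 or 400 nM); displacement raises fluorescence (Ex 620/Em 680 nm). Buffer 10 mM HEPES, 150 mM NaCl, 0.05% Tween 20, pH 7.4, 5% DMSO; 2 h at room temperature, 11-point curves, IC50 converted to Ki (cKi/eKi).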

NCI-H929 cell lines = test: In vitro cytotoxicity, CellTiter-Glo (CTG) assay (Example B, Method B); type: cell-based; conditions: Homo sapiens, NCI-H929, 48 h, NCI-H929 cells, 48 h incubation, read-out: C50
Outline: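 NCI-H929 cells exposed to an 11-point compound series from 10 mM DMSO stocks (top final 30 μM) for 48 h at 37° C., 5% CO2. Viability measured as ATP by CellTiter-Glo luminescence; C50 is the concentration giving 50% cellular viability.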

Sequence of Cy5-labelled Mcl1 (amino acids 171-321) C286S protein (Q07820 171-321 C286S): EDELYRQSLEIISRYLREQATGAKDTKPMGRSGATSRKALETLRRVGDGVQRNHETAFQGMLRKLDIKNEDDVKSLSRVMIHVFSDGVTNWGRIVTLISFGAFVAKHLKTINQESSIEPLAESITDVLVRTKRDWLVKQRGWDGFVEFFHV

Ki [1] | inhibition at 1 µM [1] | SMILES | IC50 (NCI-H929 cell lines)
0.145 nM | – | C[C@@H](COc1c(Cl)cnc2c1[C@H](C)CCC2)C[C@H]1Cc2cc3c(cc2[C@]12CC[C@@](Nc1ccc(F)c(Cl)c1)(C(=O)O)CC2)OCO3 [Example 886, (1r,4S,6′S)-4-(3-chloro-4-fluoroanilino)-6′-[(2R)-3-{[(5R)-3-chloro-5-methyl-5,6,7,8-tetrahydroquinolin-4-yl]oxy}-2-methylpropyl]-6′,7′-dihydro-2′H-spiro[cyclohexane-1,5′-indeno[5,6-d][1,3]dioxole]-4-carboxylic acid] | 381 nM
0.293 nM | – | C[C@@H](COc1ccnc2c1[C@H](C)CCC2)C[C@H]1Cc2cc3c(cc2[C@]12CC[C@@](Nc1ccc(Cl)c(Cl)c1)(C(=O)O)CC2)OCO3 [Example 887, (1r,4S,6′S)-4-(3,4-dichloroanilino)-6′-[(2R)-2-methyl-3-{[(5R)-5-methyl-5,6,7,8-tetrahydroquinolin-4-yl]oxy}propyl]-6′,7′-dihydro-2′H-spiro[cyclohexane-1,5′-indeno[5,6-d][1,3]dioxole]-4-carboxylic acid] | 151 nM
0.25 nM | – | C[C@@H](COc1ccnc2c1[C@H](C)CCC2)C[C@H]1Cc2c(Cl)c3c(cc2[C@]12CC[C@@](Nc1cccc(Cl)c1)(C(=O)O)CC2)OCO3 [Example 888, (1r,4S,6′S)-8′-chloro-4-(3-chloroanilino)-6′-[(2R)-2-methyl-3-{[(5R)-5-methyl-5,6,7,8-tetrahydroquinolin-4-yl]oxy}propyl]-6′,7′-dihydro-2′H-spiro[cyclohexane-1,5′-indeno[5,6-d][1,3]dioxole]-4-carboxylic acid] | 92.5 nM
0.0108 nM | – | COCc1cc2c(cc1F)C[C@H](C[C@@H](C)COc1ccnc3c1[C@H](C)CCC3)[C@]21CC[C@](Nc2cccc(Cl)c2)(C(=O)O)CC1 [Example 921, (1r,2′S,4S)-4-(3-chloroanilino)-5′-fluoro-6′-(methoxymethyl)-2′-[(2R)-2-methyl-3-{[(5R)-5-methyl-5,6,7,8-tetrahydroquinolin-4-yl]oxy}propyl]-2′,3′-dihydrospiro[cyclohexane-1,1′-indene]-4-carboxylic acid] | 35.9 nM
– | 4.5% | CCOC(=O)[C@]1(Nc2cccc(Cl)c2)CC[C@@]2(CC1)c1cc3c(cc1C[C@@H]2C[C@@H](C)COc1ccnc2c1[C@H](C)CCC2)OCO3 [Example 930, ethyl (1r,4S,6′S)-4-(3-chloroanilino)-6′-[(2R)-2-methyl-3-{[(5R)-5-methyl-5,6,7,8-tetrahydroquinolin-4-yl]oxy}propyl]-6′,7′-dihydro-2′H-spiro[cyclohexane-1,5′-indeno[5,6-d][1,3]dioxole]-4-carboxylate] | > 30000 nM
213 nM | – | C[C@@H](COc1ccnc2c1[C@H](C)CCC2)C[C@H]1Cc2cc3c(cc2[C@]12CC[C@@](Nc1cccc(Cl)c1)(C(=O)OCC(F)(F)F)CC2)OCO3 [Example 932, 2,2,2-trifluoroethyl (1r,4S,6′S)-4-(3-chloroanilino)-6′-[(2R)-2-methyl-3-{[(5R)-5-methyl-5,6,7,8-tetrahydroquinolin-4-yl]oxy}propyl]-6′,7′-dihydro-2′H-spiro[cyclohexane-1,5′-indeno[5,6-d][1,3]dioxole]-4-carboxylate] | 13600 nM
303 nM | – | COCCOCCOC(=O)[C@]1(Nc2cccc(Cl)c2)CC[C@@]2(CC1)c1cc3c(cc1C[C@@H]2C[C@@H](C)COc1ccnc2c1[C@H](C)CCC2)OCO3 [Example 933, 2-(2-methoxyethoxy)ethyl (1r,4S,6′S)-4-(3-chloroanilino)-6′-[(2R)-2-methyl-3-{[(5R)-5-methyl-5,6,7,8-tetrahydroquinolin-4-yl]oxy}propyl]-6′,7′-dihydro-2′H-spiro[cyclohexane-1,5′-indeno[5,6-d][1,3]dioxole]-4-carboxylate] | 18900 nM
69 nM | – | COCCOC(=O)[C@]1(Nc2cccc(Cl)c2)CC[C@@]2(CC1)c1cc3c(cc1C[C@@H]2C[C@@H](C)COc1ccnc2c1[C@H](C)CCC2)OCO3 [Example 934, 2-methoxyethyl (1r,4S,6′S)-4-(3-chloroanilino)-6′-[(2R)-2-methyl-3-{[(5R)-5-methyl-5,6,7,8-tetrahydroquinolin-4-yl]oxy}propyl]-6′,7′-dihydro-2′H-spiro[cyclohexane-1,5′-indeno[5,6-d][1,3]dioxole]-4-carboxylate] | > 30000 nM
5.46 nM | – | C[C@@H](COc1ccnc2c1[C@H](C)CCC2)C[C@H]1Cc2cc3c(cc2[C@]12CC[C@@](Nc1cccc(Cl)c1)(C(=O)OCCN(C)C)CC2)OCO3 [Example 935, 2-(dimethylamino)ethyl (1r,4S,6′S)-4-(3-chloroanilino)-6′-[(2R)-2-methyl-3-{[(5R)-5-methyl-5,6,7,8-tetrahydroquinolin-4-yl]oxy}propyl]-6′,7′-dihydro-2′H-spiro[cyclohexane-1,5′-indeno[5,6-d][1,3]dioxole]-4-carboxylate] | 1900 nM
142 nM | – | C[C@@H](COc1ccnc2c1[C@H](C)CCC2)C[C@H]1Cc2cc3c(cc2[C@]12CC[C@@](Nc1cccc(Cl)c1)(C(=O)OCC(=O)N(C)C)CC2)OCO3 [Example 936, 2-(dimethylamino)-2-oxoethyl (1r,4S,6′S)-4-(3-chloroanilino)-6′-[(2R)-2-methyl-3-{[(5R)-5-methyl-5,6,7,8-tetrahydroquinolin-4-yl]oxy}propyl]-6′,7′-dihydro-2′H-spiro[cyclohexane-1,5′-indeno[5,6-d][1,3]dioxole]-4-carboxylate] | 6840 nM
2.43 nM | – | Cc1oc(=O)oc1COC(=O)[C@]1(Nc2cccc(Cl)c2)CC[C@@]2(CC1)c1cc3c(cc1C[C@@H]2C[C@@H](C)COc1ccnc2c1[C@H](C)CCC2)OCO3 [Example 938, (5-methyl-2-oxo-2H-1,3-dioxol-4-yl)methyl (1r,4S,6′S)-4-(3-chloroanilino)-6′-[(2R)-2-methyl-3-{[(5R)-5-methyl-5,6,7,8-tetrahydroquinolin-4-yl]oxy}propyl]-6′,7′-dihydro-2′H-spiro[cyclohexane-1,5′-indeno[5,6-d][1,3]dioxole]-4-carboxylate] | 44.2 nM
1.7 nM | – | CC(=O)OC(C)OC(=O)[C@]1(Nc2cccc(Cl)c2)CC[C@@]2(CC1)c1cc3c(cc1C[C@@H]2C[C@@H](C)COc1ccnc2c1[C@H](C)CCC2)OCO3 (stereo partly drawn) [Example 939, 1-(acetyloxy)ethyl (1r,4S,6′S)-4-(3-chloroanilino)-6′-[(2R)-2-methyl-3-{[(5R)-5-methyl-5,6,7,8-tetrahydroquinolin-4-yl]oxy}propyl]-6′,7′-dihydro-2′H-spiro[cyclohexane-1,5′-indeno[5,6-d][1,3]dioxole]-4-carboxylate] | 157 nM
2.52 nM | – | CCC(=O)OC(C)OC(=O)[C@]1(Nc2cccc(Cl)c2)CC[C@@]2(CC1)c1cc3c(cc1C[C@@H]2C[C@@H](C)COc1ccnc2c1[C@H](C)CCC2)OCO3 (stereo partly drawn) [Example 940, 1-(propanoyloxy)ethyl (1r,4S,6′S)-4-(3-chloroanilino)-6′-[(2R)-2-methyl-3-{[(5R)-5-methyl-5,6,7,8-tetrahydroquinolin-4-yl]oxy}propyl]-6′,7′-dihydro-2′H-spiro[cyclohexane-1,5′-indeno[5,6-d][1,3]dioxole]-4-carboxylate] | 266 nM
3.94 nM | – | COCC(=O)OC(C)OC(=O)[C@]1(Nc2cccc(Cl)c2)CC[C@@]2(CC1)c1cc3c(cc1C[C@@H]2C[C@@H](C)COc1ccnc2c1[C@H](C)CCC2)OCO3 (stereo partly drawn) [Example 941, 1-[(methoxyacetyl)oxy]ethyl (1r,4S,6′S)-4-(3-chloroanilino)-6′-[(2R)-2-methyl-3-{[(5R)-5-methyl-5,6,7,8-tetrahydroquinolin-4-yl]oxy}propyl]-6′,7′-dihydro-2′H-spiro[cyclohexane-1,5′-indeno[5,6-d][1,3]dioxole]-4-carboxylate] | 46.2 nM
15.5 nM | – | C[C@@H](COc1ccnc2c1[C@H](C)CCC2)C[C@H]1Cc2cc3c(cc2[C@]12CC[C@@](Nc1cccc(Cl)c1)(C(=O)OCOC(=O)C(C)(C)C)CC2)OCO3 [Example 942, [(2,2-dimethylpropanoyl)oxy]methyl (1r,4S,6′S)-4-(3-chloroanilino)-6′-[(2R)-2-methyl-3-{[(5R)-5-methyl-5,6,7,8-tetrahydroquinolin-4-yl]oxy}propyl]-6′,7′-dihydro-2′H-spiro[cyclohexane-1,5′-indeno[5,6-d][1,3]dioxole]-4-carboxylate] | 222 nM
1 nM | – | COC(=O)OC(C)OC(=O)[C@]1(Nc2cccc(Cl)c2)CC[C@@]2(CC1)c1cc3c(cc1C[C@@H]2C[C@@H](C)COc1ccnc2c1[C@H](C)CCC2)OCO3 (stereo partly drawn) [Example 943, 1-[(methoxycarbonyl)oxy]ethyl (1r,4S,6′S)-4-(3-chloroanilino)-6′-[(2R)-2-methyl-3-{[(5R)-5-methyl-5,6,7,8-tetrahydroquinolin-4-yl]oxy}propyl]-6′,7′-dihydro-2′H-spiro[cyclohexane-1,5′-indeno[5,6-d][1,3]dioxole]-4-carboxylate] | 228 nM
– | 13.9% | CC(C)OC(=O)OC(C)OC(=O)[C@]1(Nc2cccc(Cl)c2)CC[C@@]2(CC1)c1cc3c(cc1C[C@@H]2C[C@@H](C)COc1ccnc2c1[C@H](C)CCC2)OCO3 (stereo partly drawn) [Example 944, 1-({[(propan-2-yl)oxy]carbonyl}oxy)ethyl (1r,4S,6′S)-4-(3-chloroanilino)-6′-[(2R)-2-methyl-3-{[(5R)-5-methyl-5,6,7,8-tetrahydroquinolin-4-yl]oxy}propyl]-6′,7′-dihydro-2′H-spiro[cyclohexane-1,5′-indeno[5,6-d][1,3]dioxole]-4-carboxylate] | 2130 nM
